Source: patent US20080153819A1, “METHODS FOR TREATING MACULAR EDEMA AND PATHOLOGIC OCULAR ANGIOGENESIS USING A NEUROPROTECTIVE AGENT AND A RECEPTOR TYROSINE KINASE INHIBITOR” (priority 2006, published 2008)

Key:
[1] = test system: existing laser-induced choroidal neovascularization (CNV); assay: Regression of existing laser-induced CNV in the mouse, intravitreal injection at 7 days post-laser; assay type: in vivo
Experimental: METHODS: CNV was generated by laser-induced rupture of Bruch's membrane. Briefly, 4 to 5 week old male C57BL/6J mice were anesthetized using intraperitoneal administration of ketamine hydrochloride (100 mg/kg) and xylazine (5 mg/kg) and the pupils of both eyes dilated with topical ocular instillation of 1% tropicamide and 2.5% Mydfin®. One drop of topical cellulose (Gonioscopic®) was used to lubricate the cornea. A hand-held cover slip was applied to the cornea and used as a contact lens to aid visualization of the fundus. Three to four retinal burns were placed in randomly assigned eye (right or left eye for each mouse) using the Alcon 532 nm EyeLite laser with a slit lamp delivery system. The laser burns were used to generate a rupture in Bruch's membrane, which was indicated opthalmoscopically by the formation of a bubble under the retina. Only mice with laser burns that produced three bubbles per eye were included in the study. Burns were typically placed at the 3, 6, 9 or 12 o'clock positions in the posterior pole of the retina, avoiding the branch retinal arteries and veins. […]
METHODS: CNV was generated by laser-induced rupture of Bruch's membrane as described above in Example 3. […] Choroidal flat mounts were analyzed as described above in Example 3.

[2] = test system: laser-induced choroidal neovascularization (CNV); assay: Laser-induced choroidal neovascularization (CNV) in the mouse, prevention, intravitreal injection; assay type: in vivo
Experimental: METHODS: CNV was generated by laser-induced rupture of Bruch's membrane. Briefly, 4 to 5 week old male C57BL/6J mice were anesthetized using intraperitoneal administration of ketamine hydrochloride (100 mg/kg) and xylazine (5 mg/kg) and the pupils of both eyes dilated with topical ocular instillation of 1% tropicamide and 2.5% Mydfin®. One drop of topical cellulose (Gonioscopic®) was used to lubricate the cornea. A hand-held cover slip was applied to the cornea and used as a contact lens to aid visualization of the fundus. Three to four retinal burns were placed in randomly assigned eye (right or left eye for each mouse) using the Alcon 532 nm EyeLite laser with a slit lamp delivery system. The laser burns were used to generate a rupture in Bruch's membrane, which was indicated opthalmoscopically by the formation of a bubble under the retina. Only mice with laser burns that produced three bubbles per eye were included in the study. Burns were typically placed at the 3, 6, 9 or 12 o'clock positions in the posterior pole of the retina, avoiding the branch retinal arteries and veins.
Each mouse was randomly assigned into one of the following treatment groups: noninjected controls, sham-injected controls, vehicle-injected mice, or one of three RTKi-injected groups. […]

[3] = test system: preretinal neovascularization (NV); assay: Rat model of oxygen-induced retinopathy (OIR), single intravitreal injection; assay type: in vivo; settings: for % Inhibition (vs. vehicle-injected eye) of preretinal NV / Median NV (clockhour score): 5 μl intravitreal injection; for % Inhibition (vs. vehicle-injected eye) of preretinal NV: Day 14/6
Description: METHODS: Pregnant Sprague-Dawley rats were received at 14 days gestation and subsequently gave birth on Day 22±1 of gestation. Immediately following parturition, pups were pooled and randomized into separate litters (n=17 pups/litter), placed into separate shoebox cages inside oxygen delivery chamber, and subjected to an oxygen-exposure profile from Day 0-14 postpartum. Litters were then placed into room air from Day 14/0 through Day 14/6 (days 14-20 postpartum). Additionally on Day 14/0, each pup was randomly assigned as an oxygen-exposed control or into various treatment groups. For those randomized into an injection treatment group: one eye received a 5 μl intravitreal injection of 0.1%, 0.3%, 0.6%, or 1% RTKi and the contralateral eye received a 5 μl intravitreal injection of vehicle. At Day 14/6 (20 days postpartum), all animals in both studies were euthanized. Immediately following euthanasia, retinas from all rat pups were harvested, fixed in 10% neutral buffered formalin for 24 hours, subjected to ADPase staining, and fixed onto slides as whole mounts. Digital images were acquired from each retinal flat mount that was adequately prepared. Computerized image analysis was used to obtain a NV clockhour score from each readable sample. Each clockhour out of 12 total per retina was assessed for the presence or absence of preretinal NV. Statistical comparisons using median scores for NV clockhours from each treatment group were utilized in nonparametric analyses. Each noninjected pup represented one NV score by taking the average value of both eyes and was used in comparisons against each dosage group. Because the pups were randomly assigned and no difference was observed between oxygen-exposed control pups from all litters, the NV scores were combined for all treatment groups. P≦0.05 was considered statistically significant.

[4] = test system: diabetes-induced retinal vascular permeability; assay: Diabetes-induced retinal vascular permeability in the STZ rat model, oral gavage; assay type: in vivo
Experimental: METHODS: Diabetes was induced in male Long-Evans rats with 65 mg/kg streptozotocin (STZ) after an overnight fast. Upon confirmation of diabetes (blood glucose >250 mg/dl), treatment was initiated by oral gavage. Non-diabetic (NDM) and diabetic (DM) rats received oral gavage of either vehicle or RTK inhibitor at 1.5 or 5 mg/kg/d BID. After 2 weeks, jugular vein catheters were implanted 1 day prior to experimentation for the infusion of indicator dye. Retinal vascular permeability, RVP, was measured using Evan's blue albumin permeation (45 mg/kg) after a 2 hour circulation period.

[5] = test system: existing laser-induced choroidal neovascularization (CNV); assay: Laser-induced CNV in the mouse, oral gavage, regression paradigm; assay type: in vivo; settings: 3 mg/kg/day p.o. from day 7 after laser
[6] = test system: laser-induced choroidal neovascularization (CNV); assay: Laser-induced CNV in the mouse, oral gavage, prevention paradigm; assay type: in vivo
[7] = test system: preretinal neovascularization (NV); assay: Rat OIR model, oral gavage; assay type: in vivo
Experimental: Immediately following euthanasia, retinas from all rat pups were harvested, fixed in 10% neutral buffered formalin for 24 hours, subjected to ADPase staining, and fixed onto slides as whole mounts. Digital images were acquired from each retinal flat mount that was adequately prepared. Computerized image analysis was used to obtain a NV clockhour score from each readable sample. Each clockhour out of 12 total per retina was assessed for the presence or absence of preretinal NV. Statistical comparisons using median scores for NV clockhours from each treatment group were utilized in nonparametric analyses. Each noninjected pup represented one NV score by taking the average value of both eyes and was used in comparisons against each dosage group. Because the pups were randomly assigned and no difference was observed between oxygen-exposed control pups from all litters, the NV scores were combined for all treatment groups. P≦0.05 was considered statistically significant. METHODS: Pregnant Sprague-Dawley rats were received at 14 days gestation and subsequently gave birth on Day 22±1 of gestation. Immediately following parturition, pups were pooled and randomized into separate litters (n=17 pups/litter), placed into separate shoebox cages inside oxygen delivery chamber, and subjected to an oxygen-exposure profile from Day 0 to Day 14 postpartum. Litters were then placed into room air from Day 14/0 through Day 14/6 (days 14-20 postpartum). Additionally on Day 14/0, each pup was randomly assigned as oxygen-exposed controls, vehicle treated, or drug-treated at 1.5, 5, 10 mg/kg, p.o., BID. At Day 14/6 (20 days postpartum), all animals in both studies were euthanized and retina whole mounts were prepared as described in Example 1 above.

[8] = test system: diabetic macular edema; settings: topical ocular administration, Japanese patients with diabetic macular edema; cited from earlier work
[9] = test system: exudative AMD; settings: Phase III, patients treated, at 24 months, up to; cited from earlier work

## Cc1ccc(F)c(NC(=O)Nc2ccc(-c3cccc4[nH]nc(N)c34)cc2)c1 [Compound 86, N-[4-[3-amino-1H-indazol-4-yl]phenyl]-N′-(2-fluoro-5-methylphenyl)urea]
[1]; 5 μl 3% RTKi intravitreal at day 7
  reduction of median CNV area at 14 days compared to CNV present at 7 days post-laser: 41.0%
[1]; single intravitreal injection
  effect on existing laser-induced CNV (in words, FIG. 4): induces regression of existing laser-induced choroidal neovascularization (CNV)
[2]; 0.3% RTKi, 5 ul intravitreal
  difference in CNV versus vehicle injected eyes (in words): marginal statistical difference
[2]; single intravitreal injection
  effect on laser-induced CNV (in words, FIG. 3): inhibits laser-induced choroidal neovascularization (CNV)
[3]; 0.1% RTKi
  % Inhibition (vs. vehicle-injected eye) of preretinal NV: 37%
[3]; 0.1% treated eyes, intravitreal
  efficacy against preretinal NV (in words): Efficacy was not observed
[3]; 0.3% RTKi
  Median NV (clockhour score): 0
  % Inhibition (vs. vehicle-injected eye) of preretinal NV: 100%
[3]; 0.6% RTKi
  Median NV (clockhour score): 0
  % Inhibition (vs. vehicle-injected eye) of preretinal NV: 100%
[3]; 1% RTKi
  Median NV (clockhour score): 0
  % Inhibition (vs. vehicle-injected eye) of preretinal NV: 100%
[3]; single intravitreal injection
  effect on preretinal NV (in words, FIG. 1): inhibits preretinal neovascularization (NV)
[4]; NDM treated at 5 mg/kg/d oral gavage
  RVP in non-diabetic rats (in words): unchanged
[4]; oral gavage, DM rats
  Blood glucose levels and body weights, DM control versus DM treatment groups: not different
[4]; oral, NDM and DM groups
  systemic or ERG side effects: no observed systemic or ERG side effects
  tolerability: well tolerated
[5]
  regression of existing CNV (in words): did not show a significant regression of existing CNV
[6]; 20 mg/kg/d p.o., prevention paradigm
  inhibition of CNV (in words): complete inhibition of CNV
[6]; oral gavage
  effect on laser-induced CNV (in words, FIG. 6): inhibits laser-induced choroidal neovascularization (CNV)
[7]; 3 mg/kg RTKi in PEG 400, p.o.
  % Inhibition (vs vehicle-injected eye) of preretinal NV: −1.4%
  Median NV (clockhour score): 7.5
[7]; 3 mg/kg/day p.o.
  decrease in NV (in words): did not have a significant decrease in NV
[7]; 20 mg/kg RTKi in PEG 400, p.o.
  % Inhibition (vs vehicle-injected eye) of preretinal NV: 100%
  Median NV (clockhour score): 0
[7]; 20 mg/kg/day p.o.
  inhibition of preretinal NV (in words): complete inhibition of preretinal NV
[7]; oral gavage
  effect on preretinal NV (in words, FIG. 2): prevents preretinal neovascularization (NV)

## CC(C)NCC(O)COc1ccc(CCOCC2CC2)cc1 (centres unmarked) [betaxolol]
[8]
  effect on vision (in words): stabilized vision

B1: ranibizumab (antibody, chains of the INN, looked up, V domains shown)
VH: EVQLVESGGGLVQPGGSLRLSCAASGYDFTHYGMNWVRQAPGKGLEWVGWINTYTGEPTYAADFKRRFTFSLDTSKSTAYLQMNSLRAEDTAVYYCAKYPYYYGTSHWYFDVWGQGTLVTVSS
VL: DIQLTQSPSSLSASVGDRVTITCSASQDISNYLNWYQQKPGKAPKVLIYFTSSLHSGVPSRFSGSGSGTDFTLTISSLQPEDFATYYCQQYSTVPWTFGQGTKVEIK
modifications: Fab
[9]
  patients with improved visual acuity: 35-40%
